# Data taken from PMC2642990, “The Glycogen-Binding Domain on the AMPK β Subunit Allows the Kinase to Act as a Glycogen Sensor” (Cell Metabolism, 2009).
# Target: T1, β1-GBD (Rattus norvegicus, UniProt P80386)
# T1 construct: The rat β1 GBD (residues 70-172 was cloned into pGEX6P2, expressed in Escherichia coli (BL21)); made in house; host or cells: E. coli BL21
# T1 sequence (P80386 70-172): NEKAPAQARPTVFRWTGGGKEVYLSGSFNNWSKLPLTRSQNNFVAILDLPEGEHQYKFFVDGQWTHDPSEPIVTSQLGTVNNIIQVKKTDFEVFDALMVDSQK
# Test: capture of glycogen hydrolysate fragments on GST-β1 GBD affinity column
# Type: binding
# Details: from partial acid hydrolysate of bovine liver glycogen; eluted with propionic acid
# Source text: In an attempt to establish the chemical nature of the regions of glycogen that bind to the GBD and cause inhibition of the AMPK complex, we carried out partial acid hydrolysis of bovine liver glycogen and utilized the β1 GBD as an affinity matrix to purify hydrolysis products that bound to the GBD. The hydrolysis conditions were chosen to yield a range of oligosaccharides containing up to six glucose units, as detected by high-performance anion exchange chromatography (HPAEC). The hydrolysate was passed down a glutathione Sepharose column to which the GST-GBD had been prebound, and bound oligosaccharides eluted with propionic acid. The eluted oligosaccharides were analyzed by HPAEC (Figure 5A). […] That this disaccharide contained glucose was confirmed by collision-induced dissociation and tandem mass spectrometry (Figure 5B); the product ion spectrum contained a daughter peak at 203, corresponding to the mass of glucose plus one Na^+ ion. […]
# To 60 μl of the material from HPAEC, 5 μl of 80% (v/v) acetonitrile plus 2% (v/v) formic acid was added. Small aliquots of this solution were transferred to Waters nanotips (Type F; Millipore, Watford, UK) and analyzed by electrospray ionization–mass spectrometry (ES-MS) in negative ion mode on an ABI Q-StarXL spectrometer (Applied Biosystems, Cambridge, UK). […]
smiles,measurement,value
OC[C@H]1O[C@H](OC[C@H]2OC(O)[C@H](O)[C@@H](O)[C@@H]2O)[C@H](O)[C@@H](O)[C@@H]1O (stereo partly shown) [isomaltose],binding to immobilised β1-GBD,bound to the β1-GBD
